Measured values published in patent publication US20250236607A1, “CYCLIN-DEPENDENT KINASE 9 (CDK9) DEGRADERS AND METHODS OF USING THEREOF” (OHIO STATE INNOVATION FOUNDATION, priority 2022, published 2025).
Converted amounts (≈) assume the structure as drawn. Read-outs that look alike come from different tables or passages of the source.

Columns and labels:
[1] = test system: MV411 cells; assay: MTS cytotoxicity assay against MV411 cells; type: cell-based; conditions: for IC50: Homo sapiens, MV4-11
[2] = Kinetic solubility assay; conditions: kinetic solubility, PBS pH 7.4; for solubility at 1.5 h: phosphate buffered saline, pH 7.4, aqueous buffer, kinetic from dmso stock, Solubility (μM)
[3] = test system: CDK9; assay: In vivo CDK9 degradation in mice; conditions: preliminary study, AML-xenografted mice
Procedure: Both degraders were able to degrade CDK9 at low nanomolar concentrations. […] Moreover, dissolution of the test compounds in the 10 mM phosphate buffered saline (PBS) media was very difficult. Solvents, such as dimethylsulfoxide (DMSO), polyethylene glycol and Tween 80©, had to be added in generous quantities to the PBS vehicle to facilitate solubility of the test compounds and allow for the preliminary in vivo assessment that led to the conclusion of inactivity in mice. Significant toxicity, in the form of death and inflammation at the injection site, was also observed due to the inclusion of these additives in the PBS vehicle.

[4] = test system: MV411 cells; assay: Cellular potency in human serum versus fetal bovine serum, MV411; type: cell-based
Description: FIGS. 3A-3C. In vitro cellular potency (against MV411 cells) in human serum (HS) versus fetal bovine serum (FBS) for compounds 4.7b (FIG. 3A) 4.9c (FIG. 3B), and 4,8a (FIG. 3C).
This contrasts with 4.8a, which loses its potency by almost 20-fold in human serum (FIG. 3C).

[5] = Chromatographic log D determination (log k′80); type: physicochemical; conditions: for logk′80: chromatographic log D, PLRP-S column, pH 7.72
Procedure, shortened: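 Samples were diluted from DMSO stock to 122 μM in acetonitrile and run on a PLRP-S column in 20:80 aqueous ammonium acetate/acetonitrile, pH 7.72, at 1 mL/min with UV detection at 337 nm. log k′80 used a fixed 0.3 min dead time derived from a five-compound standard set. Runs were done in triplicate.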

[6] = target: T1, CDK9 (Homo sapiens, UniProt P50750+Q96SW2); assay: CDK9 degradation, automated western blot, triazole-containing AT7519 degraders (MV411); type: cell-based; conditions: for DC50: CDK9 degradation, MV411 cells; for Dmax: MV4-11, maximum percent CDK9 degradation
T1 construct: endogenous in cells
T1 sequence (P50750 whole entry): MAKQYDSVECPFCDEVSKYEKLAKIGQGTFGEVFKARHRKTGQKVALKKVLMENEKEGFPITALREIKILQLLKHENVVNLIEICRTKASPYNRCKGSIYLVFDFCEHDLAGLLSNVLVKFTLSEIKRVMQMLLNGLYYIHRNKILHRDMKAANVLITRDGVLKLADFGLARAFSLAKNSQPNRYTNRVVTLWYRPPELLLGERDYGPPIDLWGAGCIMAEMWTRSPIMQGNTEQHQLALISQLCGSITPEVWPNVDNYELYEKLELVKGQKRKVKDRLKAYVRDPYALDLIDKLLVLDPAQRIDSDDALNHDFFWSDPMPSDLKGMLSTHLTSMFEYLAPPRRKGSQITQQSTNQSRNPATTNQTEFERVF
T1 sequence (O60563 whole entry partner): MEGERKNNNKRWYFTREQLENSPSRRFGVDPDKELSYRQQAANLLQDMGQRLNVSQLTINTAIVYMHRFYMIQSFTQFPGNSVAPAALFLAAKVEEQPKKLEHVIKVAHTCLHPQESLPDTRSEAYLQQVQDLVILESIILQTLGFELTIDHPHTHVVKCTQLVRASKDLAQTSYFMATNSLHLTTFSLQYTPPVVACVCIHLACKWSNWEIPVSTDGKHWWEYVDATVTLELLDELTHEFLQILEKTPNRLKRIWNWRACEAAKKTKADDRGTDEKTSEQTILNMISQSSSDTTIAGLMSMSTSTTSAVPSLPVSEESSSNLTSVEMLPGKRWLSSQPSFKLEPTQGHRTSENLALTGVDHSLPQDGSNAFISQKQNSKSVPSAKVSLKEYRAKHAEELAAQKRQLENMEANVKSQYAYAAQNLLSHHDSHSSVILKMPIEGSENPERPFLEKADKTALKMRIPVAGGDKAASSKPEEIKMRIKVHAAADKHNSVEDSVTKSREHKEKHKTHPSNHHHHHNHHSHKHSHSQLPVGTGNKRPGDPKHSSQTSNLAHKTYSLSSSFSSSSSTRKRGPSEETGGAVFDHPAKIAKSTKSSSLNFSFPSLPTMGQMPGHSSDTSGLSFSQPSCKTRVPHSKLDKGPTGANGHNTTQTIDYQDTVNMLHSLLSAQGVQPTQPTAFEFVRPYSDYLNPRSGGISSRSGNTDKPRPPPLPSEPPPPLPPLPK
T1 sequence (Q96SW2 whole entry): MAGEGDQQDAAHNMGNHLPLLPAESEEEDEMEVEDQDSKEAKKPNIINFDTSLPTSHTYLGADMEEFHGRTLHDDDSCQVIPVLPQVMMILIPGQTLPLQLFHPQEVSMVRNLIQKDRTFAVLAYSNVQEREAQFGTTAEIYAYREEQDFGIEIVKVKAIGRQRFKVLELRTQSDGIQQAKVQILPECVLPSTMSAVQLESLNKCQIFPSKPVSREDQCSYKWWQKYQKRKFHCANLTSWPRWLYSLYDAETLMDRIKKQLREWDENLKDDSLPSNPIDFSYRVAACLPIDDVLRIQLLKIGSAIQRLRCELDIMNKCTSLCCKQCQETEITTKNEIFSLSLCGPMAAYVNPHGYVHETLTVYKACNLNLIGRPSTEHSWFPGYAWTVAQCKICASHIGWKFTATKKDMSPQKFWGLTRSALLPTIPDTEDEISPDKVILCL
T1 sequence (Q16531 whole entry partner): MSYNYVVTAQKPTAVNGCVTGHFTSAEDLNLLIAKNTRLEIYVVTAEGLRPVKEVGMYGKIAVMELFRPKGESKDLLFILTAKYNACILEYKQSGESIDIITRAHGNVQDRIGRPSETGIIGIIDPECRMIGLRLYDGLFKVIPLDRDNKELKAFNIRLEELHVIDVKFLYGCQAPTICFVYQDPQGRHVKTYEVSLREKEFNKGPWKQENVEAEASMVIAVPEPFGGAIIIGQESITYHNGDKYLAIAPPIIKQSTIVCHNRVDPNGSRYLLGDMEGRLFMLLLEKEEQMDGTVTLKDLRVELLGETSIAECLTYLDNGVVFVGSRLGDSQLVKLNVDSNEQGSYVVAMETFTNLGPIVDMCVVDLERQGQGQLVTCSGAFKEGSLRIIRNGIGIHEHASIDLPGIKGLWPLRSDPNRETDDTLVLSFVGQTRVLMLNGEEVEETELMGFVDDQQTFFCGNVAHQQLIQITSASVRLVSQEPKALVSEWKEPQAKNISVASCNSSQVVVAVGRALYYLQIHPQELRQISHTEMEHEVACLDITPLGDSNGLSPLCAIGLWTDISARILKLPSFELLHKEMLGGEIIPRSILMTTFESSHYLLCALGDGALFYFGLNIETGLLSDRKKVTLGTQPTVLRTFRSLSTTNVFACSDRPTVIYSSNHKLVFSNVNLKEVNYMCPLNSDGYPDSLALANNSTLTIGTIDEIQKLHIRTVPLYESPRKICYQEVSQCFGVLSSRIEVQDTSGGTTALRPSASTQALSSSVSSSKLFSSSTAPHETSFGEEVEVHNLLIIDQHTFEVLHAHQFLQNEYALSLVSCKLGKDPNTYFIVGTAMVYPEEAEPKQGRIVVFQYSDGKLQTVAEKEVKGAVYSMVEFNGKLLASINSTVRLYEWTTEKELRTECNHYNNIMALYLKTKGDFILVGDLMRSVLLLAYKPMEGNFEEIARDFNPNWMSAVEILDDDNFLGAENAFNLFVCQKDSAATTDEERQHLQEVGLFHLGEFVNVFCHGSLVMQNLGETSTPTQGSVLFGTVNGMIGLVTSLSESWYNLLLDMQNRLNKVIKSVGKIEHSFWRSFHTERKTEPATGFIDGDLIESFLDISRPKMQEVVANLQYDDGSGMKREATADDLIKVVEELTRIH
Procedure: The obtained compounds were tested in biological experiments to measure their potency in inhibiting the growth of AML cells and in their degradation of CDK9. These measurements are reported as half-maximum growth inhibitory and half-maximum degradation concentrations, IC50s and DC50s, respectively. Maximum percent degradation (Dmax) values were also obtained during the CDK9 degradation assessments. The common MTS assay was used to acquire the IC50 values, while the DC50 values were obtained using an automated western blot experiment. These values are presented in Table 2, along with pIC50 (log(nM IC50)) to more accurately reflect the differences/lack thereof in in vitro cytotoxicity. The notation “N:N*” represents the number of linker atoms on each side of the rigid triazole ring for a given degrader. Predicted log D values, calculated using the ChemAxon […], are also provided for each degrader. To characterize the physicochemical properties of the new degrader series, two additional assays were performed: a kinetic aqueous solubility assay and the chromatographic log D experiment described earlier. Aqueous solubility is shown in μM while experimentally determined log D is shown as log k′80. Details regarding the execution of each experiment are provided below.

[7] = test system: AML cells; assay: Drug washout experiment (cytotoxicity); type: cell-based; conditions: 6 h drugging, 48 h total
Procedure: To better evaluate the catalytic mechanism of action of this degrader series, a drug washout (WO) experiment was performed. This experiment involved the drugging of cells for six hours after which the cell media was replaced with a drug-free batch.

[8] = defined as log(nM IC50), MV411, read-out: pIC50 (converted)
[9] = growth inhibition, MV411 cells, MTS, read-out: IC50

Row | Solubility [2] | solubility at 1.5 h [2] | logk′80 [5] | DC50 [6] | Dmax [6] | minimum difference in log k′80 to constitutional isomers [5] | Structure (SMILES) | IC50 [1, 8] | IC50 [1, 9] | in vivo CDK9 degradation [3] | improvement in cytotoxicity in human serum versus FBS [4] | improvement in cytotoxicity over constitutional isomers ([1]; within isomer set) | retention of potency after drug washout [7] | loss of potency in human serum versus FBS [4]
1 | 40.9 µM (≈ 33.5 µg/mL) | 40 µM (≈ 32.8 µg/mL) | 0.084 | 0.0692 µM | 79.1% |  | O=C1CCC(N2C(=O)c3cccc(OCCCn4cc(CCCCN5CCC(NC(=O)c6n[nH]cc6NC(=O)c6c(Cl)cccc6Cl)CC5)nn4)c3C2=O)C(=O)N1 (stereo not drawn) [Compound 4.7b, 4-(2,6-dichlorobenzamido)-N-(1-(4-(1-(3-((2-(2,6-dioxopiperidin-3-yl)-1,3-dioxoisoindolin-4-yl)oxy)propyl)-1H-1,2,3-triazol-4-yl)butyl)piperidin-4-yl)-1H-pyrazole-3-carboxamide] | 200 nM | 190 nM | not observed | ~3 fold |  |  | 
2 |  | 3.42 µM (≈ 3.09 µg/mL) | 0.197 | 0.0448 µM | 88.6% | 0.013 | O=C1CCC(N2C(=O)c3cccc(OCCCn4cc(CCCCCCCCCCN5CCC(NC(=O)c6n[nH]cc6NC(=O)c6c(Cl)cccc6Cl)CC5)nn4)c3C2=O)C(=O)N1 (stereo not drawn) [Compound 4.9c, 4-(2,6-dichlorobenzamido)-N-(1-(10-(1-(3-((2-(2,6-dioxopiperidin-3-yl)-1,3-dioxoisoindolin-4-yl)oxy)propyl)-1H-1,2,3-triazol-4-yl)decyl)piperidin-4-yl)-1H-pyrazole-3-carboxamide] | 7.94 nM | 8.8 nM |  |  | ~10 fold | retain their potency | 3 fold
3 |  | 5.65 µM (≈ 4.79 µg/mL) | 0.146 | 0.0601 µM | 88.3% | 0.030 | O=C1CCC(N2C(=O)c3cccc(OCCCCCCCn4cc(CCN5CCC(NC(=O)c6n[nH]cc6NC(=O)c6c(Cl)cccc6Cl)CC5)nn4)c3C2=O)C(=O)N1 (stereo not drawn) [Compound 4.8a, 4-(2,6-dichlorobenzamido)-N-(1-(2-(1-(7-((2-(2,6-dioxopiperidin-3-yl)-1,3-dioxoisoindolin-4-yl)oxy)heptyl)-1H-1,2,3-triazol-4-yl)ethyl)piperidin-4-yl)-1H-pyrazole-3-carboxamide] | 50.1 nM | 46.9 nM |  |  |  |  | ~20 fold
